This is an account of results in PMC10116527 (ACS Omega, 2023).

Test [1] concerns the target T1, PI3Kα (Homo sapiens, UniProt P42336). Put plainly: Adapta universal kinase assay. Format: biochemical. Particulars: read-out: % inhibition against PI3Kα enzyme ± SD ^b.
Test [2] concerns the target T1, PI3Kα. The test is described as follows: Adapta universal kinase assay. Particulars: read-out: % inhibition against PI3Kα enzyme ± SD ^b. Type of test: biochemical. The source holds these as a separate data set.

Where two headings read alike, the source gives them in different places.

Usually inhibition stands for the share of the control response that was lost under treatment.

T1 sequence (P42336 whole entry): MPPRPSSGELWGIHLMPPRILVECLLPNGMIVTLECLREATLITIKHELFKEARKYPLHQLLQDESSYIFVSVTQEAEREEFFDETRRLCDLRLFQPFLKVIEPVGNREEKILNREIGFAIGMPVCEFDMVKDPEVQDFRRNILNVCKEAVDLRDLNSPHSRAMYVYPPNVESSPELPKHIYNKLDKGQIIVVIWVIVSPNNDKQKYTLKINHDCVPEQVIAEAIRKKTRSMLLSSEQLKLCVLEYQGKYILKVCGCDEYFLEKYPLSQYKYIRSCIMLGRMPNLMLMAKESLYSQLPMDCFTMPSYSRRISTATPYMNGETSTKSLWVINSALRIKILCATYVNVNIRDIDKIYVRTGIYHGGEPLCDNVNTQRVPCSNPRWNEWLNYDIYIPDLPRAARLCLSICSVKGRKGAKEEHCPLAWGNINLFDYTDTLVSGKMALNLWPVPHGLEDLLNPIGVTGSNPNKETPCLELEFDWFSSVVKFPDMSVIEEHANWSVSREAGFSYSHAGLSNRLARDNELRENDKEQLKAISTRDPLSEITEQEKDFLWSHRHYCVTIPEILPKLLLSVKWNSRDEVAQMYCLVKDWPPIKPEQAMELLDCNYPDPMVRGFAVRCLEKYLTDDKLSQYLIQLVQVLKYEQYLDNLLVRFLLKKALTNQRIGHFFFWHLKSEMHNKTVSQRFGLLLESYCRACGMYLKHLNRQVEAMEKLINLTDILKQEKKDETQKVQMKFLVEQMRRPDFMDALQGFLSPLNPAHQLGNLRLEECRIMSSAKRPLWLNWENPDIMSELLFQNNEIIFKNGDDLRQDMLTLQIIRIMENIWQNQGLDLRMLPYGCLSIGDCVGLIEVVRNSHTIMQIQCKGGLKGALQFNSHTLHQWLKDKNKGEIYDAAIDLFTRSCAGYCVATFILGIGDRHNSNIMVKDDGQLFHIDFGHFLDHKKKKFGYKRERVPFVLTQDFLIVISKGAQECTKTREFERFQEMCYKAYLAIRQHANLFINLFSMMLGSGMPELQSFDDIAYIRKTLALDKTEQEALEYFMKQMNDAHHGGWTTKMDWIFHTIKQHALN
T1 sequence (P27986 2-724, further chain): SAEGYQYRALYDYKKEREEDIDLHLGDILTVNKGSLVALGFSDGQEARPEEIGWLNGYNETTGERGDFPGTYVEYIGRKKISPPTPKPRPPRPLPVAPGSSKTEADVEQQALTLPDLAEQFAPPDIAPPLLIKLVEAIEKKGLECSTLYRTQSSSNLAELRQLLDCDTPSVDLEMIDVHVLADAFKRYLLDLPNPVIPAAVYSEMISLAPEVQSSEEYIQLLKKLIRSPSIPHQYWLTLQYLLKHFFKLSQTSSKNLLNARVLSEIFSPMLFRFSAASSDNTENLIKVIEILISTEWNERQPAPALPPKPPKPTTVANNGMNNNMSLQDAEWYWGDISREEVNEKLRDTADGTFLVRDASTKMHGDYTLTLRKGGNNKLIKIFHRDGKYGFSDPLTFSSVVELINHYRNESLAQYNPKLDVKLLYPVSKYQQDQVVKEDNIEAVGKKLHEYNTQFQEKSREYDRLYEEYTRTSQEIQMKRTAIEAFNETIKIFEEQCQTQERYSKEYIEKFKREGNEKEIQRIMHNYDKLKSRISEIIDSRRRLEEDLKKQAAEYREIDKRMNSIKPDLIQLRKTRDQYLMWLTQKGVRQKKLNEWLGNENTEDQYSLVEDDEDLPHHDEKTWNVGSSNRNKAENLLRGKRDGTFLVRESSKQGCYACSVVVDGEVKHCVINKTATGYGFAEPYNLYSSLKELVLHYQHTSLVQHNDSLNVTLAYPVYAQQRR

As to `CCN(CC)c1nc(NCc2ccccc2)nc(Nc2ccc(S(=O)(=O)Nc3ccccn3)cc2)n1` [compound 20, 4-{[4-(Benzylamino)-6-(diethylamino)-1,3,5-triazin-2-yl]amino}-N-(pyridin-2-yl)benzene-1-sulfonamide], the inhibition at 100 µM at PI3Kα [1] was determined as 46%. `CCN(CC)c1nc(Nc2ccc(S(=O)(=O)NC(=N)N)cc2)nc(N2CCOCC2)n1` [compound 34, 1-(4-{[4-(Diethylamino)-6-(morpholin-4-yl)-1,3,5-triazin-2-yl]amino}benzene-sulfonyl)guanidine]: on PI3Kα [2], the inhibition at 100 µM came to 68 ± 3%.
